Values quoted from earlier work, collected in patent US6372423B1, “Method for stabilizing platelets” (Dade Behring Marburg GmbH, priority 1996, dated 2002).
Counter-ions that a name gives are not always drawn.

Details: intravenous administration of 0.8 mg per kg and hour

CCN(CCO)CCCC(C)Nc1ccnc2cc(Cl)ccc12 (stereo not shown) [hydroxychloroquine sulfate]
Toxicological assessment: toxicologically harmless
